Measurements published in ChEMBL document CHEMBL3860036, “Sesquiterpene Hydroquinones with Protein Tyrosine Phosphatase 1B Inhibitory Activities from a Dysidea sp. Marine Sponge Collected in Okinawa” (J Nat Prod, 2016).

What was measured:
[1] = molecular target: T1, Tyrosine-protein phosphatase non-receptor type 1 (Homo sapiens, UniProt P18031)
T1 sequence (P18031 whole entry): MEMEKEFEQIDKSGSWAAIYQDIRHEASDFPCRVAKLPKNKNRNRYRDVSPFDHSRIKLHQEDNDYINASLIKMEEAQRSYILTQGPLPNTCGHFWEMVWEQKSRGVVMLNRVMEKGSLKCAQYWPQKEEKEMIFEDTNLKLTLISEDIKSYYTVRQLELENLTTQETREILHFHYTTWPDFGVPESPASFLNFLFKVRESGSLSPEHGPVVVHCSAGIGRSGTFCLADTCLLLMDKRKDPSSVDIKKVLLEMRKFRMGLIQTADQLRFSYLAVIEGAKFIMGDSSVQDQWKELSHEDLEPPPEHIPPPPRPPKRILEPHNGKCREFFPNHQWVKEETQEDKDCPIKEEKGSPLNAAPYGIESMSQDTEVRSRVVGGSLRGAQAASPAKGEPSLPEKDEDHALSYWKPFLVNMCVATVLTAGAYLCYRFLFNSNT
Description: Inhibition of recombinant human PTP1B (1 to 322 residues) expressed in Escherichia coli using pNPP as substrate preincubated for 10 mins followed by substrate addition measured after 30 mins

[2] = molecular target: T2, Tyrosine-protein phosphatase non-receptor type 1 (Homo sapiens) (UniProt P18031); assay: Inhibition of recombinant human PTP1B (1 to 322 residues) expressed in Escherichia coli at 31 uM preincubated for 10 mins followed by pNPP substrate addition measured after 30 mins relative to control
T2 sequence (whole entry): T1 sequence (P18031 whole entry)

[3] = molecular target: T2, Tyrosine-protein phosphatase non-receptor type 1 (Homo sapiens); conditions: 32 uM
Description: Inhibition of recombinant human PTP1B (1 to 322 residues) expressed in Escherichia coli at 32 uM preincubated for 10 mins followed by pNPP substrate addition measured after 30 mins relative to control

[4] = molecular target: T2, Tyrosine-protein phosphatase non-receptor type 1 (Homo sapiens); conditions: 25 uM
Description: Inhibition of recombinant human PTP1B (1 to 322 residues) expressed in Escherichia coli at 25 uM preincubated for 10 mins followed by pNPP substrate addition measured after 30 mins relative to control

| IC50 [1] [µM] | Compound | other results |
| --- | --- | --- |
| 12 | CC1=CCC[C@H]2[C@](C)(Cc3cc(O)ccc3O)[C@@H](C)CC[C@]12C [AVAROL] |  |
| 11 | CC1=CCC[C@H]2[C@]3(C)Cc4cc(O)ccc4O[C@]3(C)CC[C@]12C |  |
|  | C=C1CCC[C@H]2[C@](C)(Cc3cc(OC)ccc3O)[C@@H](C)CC[C@]12C | inhibition [2]: 50% |
| > 32 | C=C1CCC[C@H]2[C@](C)(Cc3cc(O)ccc3O)[C@@H](C)CC[C@]12C | inhibition [3]: 35% |
| 9.4 | C=C1CCC[C@H]2[C@](C)(Cc3cc(OC(=O)CC)ccc3OC(=O)CC)[C@@H](C)CC[C@]12C |  |
| 18 | CC1=CCC[C@H]2[C@](C)(CC3=CC(=O)C=C(N)C3=O)[C@@H](C)CC[C@]12C |  |
|  | CC(=O)Oc1ccc(OC(C)=O)c(C[C@]2(C)[C@@H](C)CC[C@]3(C)C(C)=CCC[C@@H]23)c1 | inhibition [4]: 5% |
|  | COc1ccc(O)c(C[C@]2(C)[C@@H](C)CC[C@]3(C)C(C)=CCC[C@@H]23)c1 | inhibition [2]: 0% |
| 6.5 | C=C1CCC[C@H]2[C@](C)(Cc3cc(O)ccc3OC(C)=O)[C@@H](C)CC[C@]12C |  |
| 9.5 | CC(=O)Oc1ccc(O)cc1C[C@]1(C)[C@@H](C)CC[C@]2(C)C(C)=CCC[C@@H]12 |  |
| 8.6 | C=C1CCC[C@H]2[C@](C)(Cc3cc(OC(C)=O)ccc3O)[C@@H](C)CC[C@]12C |  |
| 8.8 | CCC(=O)Oc1ccc(OC(=O)CC)c(C[C@]2(C)[C@@H](C)CC[C@]3(C)C(C)=CCC[C@@H]23)c1 |  |
| 14 | C=C1CCC[C@H]2[C@](C)(Cc3cc(OC(C)=O)ccc3OC(C)=O)[C@@H](C)CC[C@]12C |  |
| 10 | CC(=O)Oc1ccc(O)c(C[C@]2(C)[C@@H](C)CC[C@]3(C)C(C)=CCC[C@@H]23)c1 |  |
